# ChEMBL document CHEMBL4627270, “Design, synthesis and biological evaluation of novel carbamates as potential inhibitors of acetylcholinesterase and butyrylcholinesterase” (Bioorg Med Chem, 2020)
# Experiments:
# [1] = biological target: Acetylcholinesterase (Electrophorus electricus, UniProt O42275); experiment: Inhibition of electric eel AChE using S-acetylthiocholine iodide as substrate preincubated for 60 mins followed by substrate addition and measured for 5 mins by Ellman's method
# [2] = biological target: Cholinesterase (Equus caballus, UniProt P81908); experiment: Inhibition of equine serum BChE using S-butyrylthiocholine iodide as substrate preincubated for 60 mins followed by substrate addition and measured for 5 mins by Ellman's method
# [3] = biological target: T1, Cholinesterase (Homo sapiens, UniProt P06276); experiment: Potency index, ratio of test compound to rivastigmine for inhibition of human plasma BChE assessed as second order carbamylation rate constant using S-butyrylthiocholine iodide as substrate
# [4] = biological target: T1, Cholinesterase; experiment: Inhibition of human plasma BChE using S-butyrylthiocholine iodide as substrate preincubated for 20 to 60 mins followed by substrate addition and measured for 5 mins by Ellman's method
# [5] = biological target: T1, Cholinesterase; experiment: Inhibition of human plasma BChE at 2.5 to 25 nM using S-butyrylthiocholine iodide as substrate incubated prior to substrate addition and measured for 5 mins by Ellman's method; settings: TDE = time-dependent effect
# [6] = biological target: T1, Cholinesterase; experiment: Inhibition of human plasma BChE using S-butyrylthiocholine iodide as substrate preincubated for 60 mins followed by substrate addition and measured for 5 mins by Ellman's method
# [7] = biological target: T1, Cholinesterase; experiment: Inhibition of human plasma BChE assessed as second order carbamylation rate constant using S-butyrylthiocholine iodide as substrate preincubated for 15 to 60 mins followed by substrate addition by Ellman's method
# [8] = biological target: Acetylcholinesterase (Homo sapiens, UniProt P22303); experiment: Inhibition of human erythrocyte AChE using S-acetylthiocholine iodide as substrate preincubated for 60 mins followed by substrate addition and measured for 5 mins by Ellman's method
# [9] = biological target: T1, Cholinesterase; experiment: Inhibition of human plasma BChE assessed as decarbamylation rate constant using S-butyrylthiocholine iodide as substrate preincubated for 15 to 60 mins followed by substrate addition by Ellman's method
# [10] = biological target: T1, Cholinesterase; experiment: Inhibition of human plasma BChE at 15 to 100 nM using S-butyrylthiocholine iodide as substrate incubated prior to substrate measured for 5 mins by Ellman's method; settings: TDE = time-dependent effect
# T1 sequence (P06276 whole entry): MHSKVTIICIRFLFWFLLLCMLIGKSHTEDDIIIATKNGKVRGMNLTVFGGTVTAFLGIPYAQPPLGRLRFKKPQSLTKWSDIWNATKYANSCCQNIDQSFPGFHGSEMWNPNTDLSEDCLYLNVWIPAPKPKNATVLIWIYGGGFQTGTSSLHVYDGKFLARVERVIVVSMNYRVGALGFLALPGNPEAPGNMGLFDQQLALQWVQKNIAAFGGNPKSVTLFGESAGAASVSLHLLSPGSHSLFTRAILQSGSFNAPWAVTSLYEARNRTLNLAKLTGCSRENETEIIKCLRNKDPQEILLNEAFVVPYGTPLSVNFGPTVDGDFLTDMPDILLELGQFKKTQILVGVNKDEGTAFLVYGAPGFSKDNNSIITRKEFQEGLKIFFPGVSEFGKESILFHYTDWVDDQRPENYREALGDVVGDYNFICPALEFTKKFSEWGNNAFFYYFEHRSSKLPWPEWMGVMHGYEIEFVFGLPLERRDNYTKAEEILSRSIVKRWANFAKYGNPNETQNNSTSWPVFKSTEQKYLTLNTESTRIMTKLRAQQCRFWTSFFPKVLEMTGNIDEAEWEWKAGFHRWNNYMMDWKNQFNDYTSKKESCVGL
# Chain of Acetylcholinesterase (Electrophorus electricus, UniProt O42275) (O42275 whole entry): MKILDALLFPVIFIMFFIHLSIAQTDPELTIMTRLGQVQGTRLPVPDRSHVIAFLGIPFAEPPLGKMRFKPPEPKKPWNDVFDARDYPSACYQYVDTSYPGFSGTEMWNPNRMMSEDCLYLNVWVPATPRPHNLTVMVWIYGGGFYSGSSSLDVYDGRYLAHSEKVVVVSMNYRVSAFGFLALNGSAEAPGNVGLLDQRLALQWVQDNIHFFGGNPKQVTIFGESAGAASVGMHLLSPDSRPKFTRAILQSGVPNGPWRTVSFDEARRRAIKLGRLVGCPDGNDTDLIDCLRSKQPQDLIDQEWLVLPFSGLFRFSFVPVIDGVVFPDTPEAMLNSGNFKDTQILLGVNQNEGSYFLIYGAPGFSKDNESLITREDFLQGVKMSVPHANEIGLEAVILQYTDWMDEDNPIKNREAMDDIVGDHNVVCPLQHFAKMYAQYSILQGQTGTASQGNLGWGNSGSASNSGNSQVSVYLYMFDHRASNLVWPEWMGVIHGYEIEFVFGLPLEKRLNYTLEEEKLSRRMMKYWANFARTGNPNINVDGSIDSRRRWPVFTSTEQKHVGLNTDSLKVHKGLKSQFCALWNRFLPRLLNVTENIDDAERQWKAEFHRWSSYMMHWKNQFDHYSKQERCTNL
# Chain of Cholinesterase (Equus caballus, UniProt P81908) (P81908 whole entry): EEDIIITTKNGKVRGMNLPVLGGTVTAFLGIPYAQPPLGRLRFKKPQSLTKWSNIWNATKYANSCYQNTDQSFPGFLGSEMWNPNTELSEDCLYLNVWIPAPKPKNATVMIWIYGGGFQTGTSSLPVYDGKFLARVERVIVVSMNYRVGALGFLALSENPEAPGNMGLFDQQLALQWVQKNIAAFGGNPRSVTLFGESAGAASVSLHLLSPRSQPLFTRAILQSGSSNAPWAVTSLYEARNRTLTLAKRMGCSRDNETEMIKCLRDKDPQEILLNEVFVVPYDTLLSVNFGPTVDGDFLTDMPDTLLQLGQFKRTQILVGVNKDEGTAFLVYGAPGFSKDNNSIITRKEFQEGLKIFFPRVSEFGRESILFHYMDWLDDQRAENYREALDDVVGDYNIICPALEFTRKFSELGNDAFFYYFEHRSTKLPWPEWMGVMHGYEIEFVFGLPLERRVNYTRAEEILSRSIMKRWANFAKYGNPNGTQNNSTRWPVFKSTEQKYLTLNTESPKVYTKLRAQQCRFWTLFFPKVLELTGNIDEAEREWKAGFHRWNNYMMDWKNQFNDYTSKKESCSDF
# Chain of Acetylcholinesterase (Homo sapiens, UniProt P22303) (P22303 whole entry): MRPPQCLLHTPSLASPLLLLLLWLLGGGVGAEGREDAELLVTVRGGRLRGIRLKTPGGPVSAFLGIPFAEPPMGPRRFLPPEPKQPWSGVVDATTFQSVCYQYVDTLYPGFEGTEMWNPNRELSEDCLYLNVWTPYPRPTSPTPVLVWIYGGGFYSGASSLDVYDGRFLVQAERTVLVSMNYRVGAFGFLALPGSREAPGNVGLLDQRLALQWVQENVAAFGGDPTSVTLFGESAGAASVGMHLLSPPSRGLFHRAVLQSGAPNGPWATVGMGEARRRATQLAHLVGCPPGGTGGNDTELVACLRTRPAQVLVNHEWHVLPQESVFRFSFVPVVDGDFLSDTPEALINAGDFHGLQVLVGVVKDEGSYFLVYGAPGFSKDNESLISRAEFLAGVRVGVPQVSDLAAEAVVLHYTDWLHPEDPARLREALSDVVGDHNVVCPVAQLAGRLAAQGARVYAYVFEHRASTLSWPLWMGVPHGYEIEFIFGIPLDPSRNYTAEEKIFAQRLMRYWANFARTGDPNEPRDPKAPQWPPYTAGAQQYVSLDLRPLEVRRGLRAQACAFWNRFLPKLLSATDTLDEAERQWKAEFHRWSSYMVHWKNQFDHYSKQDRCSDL
SMILES,IC50 [1],IC50 [2],further results
CN(C)C(=O)Oc1ccc(C(O)CNC(C)(C)C)cc1 (stereo not drawn),15 µM,5.37 µM,–
CN(C)C(=O)Oc1cccc(C(O)CNC(C)(C)C)c1 (stereo not drawn),6.08 µM,0.383 µM,–
CN(C)C(=O)Oc1cccc(C(O)CNC2CCCC2)c1 (stereo not drawn),1.39 µM,0.057 µM,–
CN(C)C(=O)Oc1cccc(C(O)CN2CCCC2)c1 (stereo not drawn),3.15 µM,0.179 µM,–
CN(C)C(=O)Oc1cccc(C(O)CNC(C)(C)c2ccccc2)c1 (stereo not drawn),7.12 µM,0.303 µM,–
CN(C)C(=O)Oc1cccc(C(O)CN2CCCCC2)c1 (stereo not drawn),3.74 µM,0.097 µM,–
CN(C)C(=O)Oc1cccc(C(O)CNc2ccc(F)cc2)c1 (stereo not drawn),45.4 µM,0.194 µM,–
CN(C)C(=O)Oc1cccc(C(O)CN2CCOCC2)c1 (stereo not drawn),> 100 µM,2.19 µM,–
CN(C)C(=O)Oc1cccc(C(O)CNC2CCCCC2)c1 (stereo not drawn),1.87 µM,0.008 µM,Ratio [3]: 10; inhibition [4]: Dose-dependent effect; inhibition [5]: Tde; IC50 [6]: 2.2 µM; K [7]: 1110 ×10⁴ /M/min; IC50 [8]: 792 µM; K [9]: 18.9 ×10⁻³ /min
CN(C)C(=O)Oc1ccc(C(O)CNC2CCCCC2)cc1 (stereo not drawn),0.655 µM,0.027 µM,inhibition [10]: Tde; Ratio [3]: 20; inhibition [4]: Dose-dependent effect; IC50 [6]: 10.6 µM; K [7]: 206 ×10⁴ /M/min; IC50 [8]: 266 µM; K [9]: 14.8 ×10⁻³ /min
CCN(C)C(=O)Oc1cccc([C@H](C)N(C)C)c1,–,–,K [7]: 33.3 ×10⁴ /M/min; K [9]: 2.3 ×10⁻³ /min
C#Cc1cccc(NCC(O)c2cccc(OC(=O)N(C)C)c2)c1 (stereo not drawn),70.5 µM,0.154 µM,–
CCC(C)(C)NCC(O)c1ccc(OC(=O)N(C)C)cc1 (stereo not drawn),15.9 µM,1.57 µM,–
CN(C)C(=O)Oc1ccc(C(O)CN2CCCCC2)cc1 (stereo not drawn),3.51 µM,0.245 µM,–
CCC(C)(C)NCC(O)c1cccc(OC(=O)N(C)C)c1 (stereo not drawn),4.15 µM,0.18 µM,–
CN(C)C(=O)Oc1cccc(C(O)CNc2ccc(I)cc2)c1 (stereo not drawn),28.9 µM,0.381 µM,–
CN(C)C(=O)Oc1cccc(C(O)CNc2ccccc2)c1 (stereo not drawn),67.5 µM,0.282 µM,–
